Measured values taken from patent publication US8222187B2, “Method for improving the phytoremediation of polluted sites by providing plants with exogenous carbohydrates” (Universite de Rennes 1, priority 2003, dated 2012).
pIC50: −log10 of the molar value.

How the values were obtained:
Arabidopsis thaliana [1] = assay: Length of the primary roots of Arabidopsis thaliana after 15 days of culture on agar medium; type: in vivo
Experimental: (§1) Arabidopsis thaliana seeds (Wassilewskija ecotype) were sterilised at the surface according to the standard protocol and then rinsed with absolute ethanol and dried for one night.
(§2) These seeds were cultivated in Petri dishes on a culture medium of Murashige and Skoog (adjusted to a pH of 5.7) containing agar (0.8%). The Petri dishes were stored for 48 h at 4° C. then transferred to 22° C. under a photoperiod of 16 hours per day at 4500 lux. The sucrose and glucose were added to the culture medium, while no sugar was added for the controls.
(§3) A growth parameter (length of the primary roots) and the pigment levels (chlorophylls and carotenoids) were measured after 15 days of culture. The atrazine levels in the plants were also measured after one month of culture.

Arabidopsis thaliana [2] = assay: Photosynthetic pigment levels (chlorophylls and carotenoids) after 15 days of culture; type: in vivo
Experimental: as §1, §2, §3
The photosynthetic pigments (chlorophylls and carotenoids) were extracted by grinding the aerial portions of the plants in 80% acetone and by measuring the absorbance of the extracts corresponding to 663 nm, 646 nm and 470 nm. The levels of these pigments were expressed in μg/mL and determined according to the method of Lichtenthaler et al. (1983 Biochem. Soc. Trans. 11, 591-592).

[3] = system: D1 protein of photosystem II; assay: D1 protein levels by Dot Blot and Western Blot; type: in vivo, Arabidopsis thaliana
Experimental: In another experiment series, Arabidopsis thaliana plants were cultivated in the culture medium described above in the absence of sucrose and in the presence of 10 mM and 80 mM of sucrose, and in the absence of atrazine and in the presence of 0.25 μM and 1 μM of atrazine. To measure the levels of D1 protein (31-kD monomer and 21.5-kD by-products), the membrane proteins of the plants were isolated according to the method of Pilgrim et al. (1998 Plant. J. 13 2-77-186). The levels of the total concentration of the target protein, D1 protein of photosystem II, were measured by Dot Blot analysis. Then, the different forms were analysed by gel electrophoresis separation under denaturing and Western Blot conditions.

superoxide ion = assay: Superoxide ion production of the plants; type: in vivo, Arabidopsis thaliana; settings: 10 mM sucrose
Experimental: In addition, the superoxide ion production of the plants was tested according to the method of Fryer et al. (2002 Imaging of photo-oxidative stress responses in leaves—J. Exp. Bot. 53: 1249-1254).

photosystem II = molecular target: T1, photosystem II (Arabidopsis thaliana, UniProt P83755); assay: Activity of photosystem II monitored by chlorophyll fluorescence; type: in vivo; settings: increasing sucrose (10 mM, 80 mM), atrazine 0.25 μM and 1 μM (lethal or sublethal doses without sucrose)
T1 construct: from tissue; host or cells: whole Arabidopsis thaliana plants grown on culture medium
Experimental: In another experiment series, Arabidopsis thaliana plants were cultivated in the culture medium described above in the absence of sucrose and in the presence of 10 mM and 80 mM of sucrose, and in the absence of atrazine and in the presence of 0.25 μM and 1 μM of atrazine. […] The activity of photosystem II is monitored by measuring the fluorescence of the chlorophylls.

Arabidopsis thaliana [4] = assay: Arabidopsis culture on humus contaminated with atrazine; type: in vivo; settings: humus with 10 μM atrazine; sucrose applied to the surface as a 3% solution
Experimental: Atrazine concentrations were also measured in the plants and the culture medium using conventional methods of extraction with solvents and high-performance liquid chromatography analysis with UV detection. The atrazine was extracted in a methanol and water mixture (4:1, v/v). After centrifugation, the supernatants were filtered on filters of 0.45 μm and the organic solvents were evaporated at 40° C. SPE cartridges were activated by washing with 5 mL or methanol then 5 mL of water. Each sample was applied to a column and the columns were then washed. The atrazine was eluted with 2 mL of dichloromethane. The organic solvents were then evaporated and the dry residues were dissolved in 500 μL of a methanol and water mixture (1:1). The samples were then analysed by HPLC with UV detection. In additional experiments, Arabidopsis thaliana was also cultivated on a humus contaminated at a concentration of 10 μM of atrazine in the absence of sucrose and in the presence of sucrose applied to the surface in the form of a 3% solution. The cultures obtained are shown in FIG. 11, in which the left-hand container corresponds to the culture in the presence of sucrose and the right-hand container corresponds to the culture in the absence of sucrose.

[5] = absence of sugars in the culture medium

Compound | effect on the length of the primary roots (Arabidopsis thaliana [1]; 1 to 10 μM atrazine, in the presence of 80 mM sucrose or 80 mM glucose) | pIC50 (Arabidopsis thaliana [1]; Arabidopsis thaliana, absence of sugars in the culture medium, hyperbolic regression curve (R^2=0.93), read-out: I50 for the atrazine inhibition of primary root length) | concentration at which inhibition of root development is complete, with discolouring and death of the plants (Arabidopsis thaliana [1]; [5]) | effect on root growth (Arabidopsis thaliana [1]; atrazine concentrations higher than 10 μM, in the presence of 80 mM sucrose or 80 mM glucose) | concentration at which chlorophylls and carotenoids disappear completely (Arabidopsis thaliana [2]; [5]) | effect on levels of chlorophylls and carotenoids in the leaves (Arabidopsis thaliana [2]; in the presence of 80 mM sucrose or 80 mM glucose) | effect on D1 protein (Dot Blot, all D1 proteins) ([3]; 1 μM atrazine, plants not cultivated in the presence of sucrose) | effect on superoxide ion production (superoxide ion; increasing atrazine levels) | increase in root growth at higher atrazine concentrations, sucrose compared with glucose (Arabidopsis thaliana [1]; 80 mM sugar) | effect on activity of photosystem II (photosystem II) | effect on D1 protein and by-products (Western Blot) ([3]; 10 mM sucrose, 1 μM atrazine) | effect on D1 protein and by-products (Western Blot) ([3]; 80 mM sucrose, 1 μM atrazine) | effect on monomer of the D1 protein (Western Blot) ([3]; 80 mM sucrose, atrazine concentrations at which the monomer disappears without sucrose) | effect on D1 protein (Western Blot) ([3]; high sucrose concentrations, absence of atrazine) | effect on D1 protein and by-products (Western Blot) ([3]; sucrose in the culture medium, 0.25 μM atrazine) | effect of sucrose on production of active oxygen species such as the superoxide ion (superoxide ion; in the presence of atrazine) | seedlings on contaminated humus with sucrose compared with no sucrose (Arabidopsis thaliana [4])
CCNc1nc(Cl)nc(NC(C)C)n1 [atrazine, 2-chloro-4-ethylamino-6-isopropylamine-1,3,5-triazine] | inhibiting but non-lethal effect | 6.92 | 500 nM | paradoxically enable the root growth to improve | 500 nM | the production of these pigments is not suppressed | causes the disappearance of the D1 protein | appears to increase in the presence of atrazine |  |  |  |  |  |  |  |  | 
OC[C@H]1O[C@@](CO)(O[C@H]2O[C@H](CO)[C@@H](O)[C@H](O)[C@H]2O)[C@@H](O)[C@@H]1O [sucrose] |  |  |  |  |  |  |  |  | greater in the presence of sucrose than in the presence of glucose | contribute to maintaining the activity of photosystem II | The same effect was observed | causes a decrease in the D1 protein | maintain a sufficient amount of monomer of the D1 protein | decrease in D1 protein production | greater accumulation of the D1 protein and its by-products | does not prevent the production | more numerous and larger
